Test results from article PMC11005723, “Development of Complementary Photo‐arginine/lysine to Promote Discovery of Arg/Lys hPTMs Interactomes” (Advanced Science, 2024).

Test system: HEK293T nuclear lysates
Test: SILAC‐based pull‐down proteomics H4K5me2/H4K5 (probes 7/5)
Assay type: binding, human
Details: for E6 log2 (H4K5me2/H4K5): run E6; for F6 log2 (H4K5me2/H4K5): run F6

## probe 7: H4K5me2 peptide probe with photo‐arginine R(dz) and K(biotin) (SGRGKGGKGLGKGGK; photo-arginine R(dz) at 3; dimethyl-lysine at 5; K(biotin) at 15)
365 nm UV 30 min, streptavidin enrichment, n = 2
  proteins recruited (SILAC proteomics H4K5me2/H4K5): could recruit L3MBTL2
Protein A0A0U1RR22 PACSIN2
  E6 log2 (H4K5me2/H4K5): 0.1208
  F6 log2 (H4K5me2/H4K5): -0.1109
Protein A0A2R8Y855 SMARCE1
  E6 log2 (H4K5me2/H4K5): 0.07695
  F6 log2 (H4K5me2/H4K5): 0.03141
Protein A0A087WY61 NUMA1
  E6 log2 (H4K5me2/H4K5): 0.1401
  F6 log2 (H4K5me2/H4K5): 0.3015
Protein A6NLN1 PTBP1
  E6 log2 (H4K5me2/H4K5): 0.07938
  F6 log2 (H4K5me2/H4K5): -0.02591
Protein B4DY09 ILF2
  E6 log2 (H4K5me2/H4K5): 0.08111
  F6 log2 (H4K5me2/H4K5): 0.1752
Protein B5MCF9 PES1
  E6 log2 (H4K5me2/H4K5): 0.1415
  F6 log2 (H4K5me2/H4K5): 0.1164
Protein E7ETZ4 BZW2
  E6 log2 (H4K5me2/H4K5): 0.1449
  F6 log2 (H4K5me2/H4K5): -0.03577
Protein E9PKG1 PRMT1
  E6 log2 (H4K5me2/H4K5): 0.1534
  F6 log2 (H4K5me2/H4K5): 0.23
Protein H7C3T4 PRDX4
  E6 log2 (H4K5me2/H4K5): 0.1102
  F6 log2 (H4K5me2/H4K5): 0.1589
Protein J3QR09 RPL19
  E6 log2 (H4K5me2/H4K5): 0.1467
  F6 log2 (H4K5me2/H4K5): -0.9956
Protein M0R3F6 SUGP2
  E6 log2 (H4K5me2/H4K5): 0.09539
  F6 log2 (H4K5me2/H4K5): 0.1115
Protein O00567 NOP56
  E6 log2 (H4K5me2/H4K5): 0.1426
  F6 log2 (H4K5me2/H4K5): -0.1862
Protein O14654 IRS4
  E6 log2 (H4K5me2/H4K5): 0.1705
  F6 log2 (H4K5me2/H4K5): -0.09217
Protein O14980 XPO1
  E6 log2 (H4K5me2/H4K5): 0.1332
  F6 log2 (H4K5me2/H4K5): 0.2789
Protein O43663 PRC1
  E6 log2 (H4K5me2/H4K5): 0.1243
  F6 log2 (H4K5me2/H4K5): 0.05206
Protein O43670 ZNF207
  E6 log2 (H4K5me2/H4K5): 0.07954
  F6 log2 (H4K5me2/H4K5): 0.2082
Protein O60216 RAD21
  E6 log2 (H4K5me2/H4K5): 0.09859
  F6 log2 (H4K5me2/H4K5): -0.00427
Protein O60264 SMARCA5
  E6 log2 (H4K5me2/H4K5): 0.1187
  F6 log2 (H4K5me2/H4K5): 0.0006909
Protein O75717 WDHD1
  E6 log2 (H4K5me2/H4K5): 0.1724
  F6 log2 (H4K5me2/H4K5): 0.09518
Protein O95218 ZRANB2
  E6 log2 (H4K5me2/H4K5): 0.07138
  F6 log2 (H4K5me2/H4K5): 0.02934
Protein O95239 KIF4A
  E6 log2 (H4K5me2/H4K5): 0.09061
  F6 log2 (H4K5me2/H4K5): 0.09527
Protein P04843 RPN1
  E6 log2 (H4K5me2/H4K5): 0.0606
  F6 log2 (H4K5me2/H4K5): -0.2414
Protein P08107 HSPA1A
  E6 log2 (H4K5me2/H4K5): 0.1665
  F6 log2 (H4K5me2/H4K5): 0.1744
Protein P11387 TOP1
  E6 log2 (H4K5me2/H4K5): 0.0619
  F6 log2 (H4K5me2/H4K5): 0.02763
Protein P12081 HARS
  E6 log2 (H4K5me2/H4K5): 0.08516
  F6 log2 (H4K5me2/H4K5): -0.01799
Protein P13010 XRCC5
  E6 log2 (H4K5me2/H4K5): 0.1114
  F6 log2 (H4K5me2/H4K5): 0.1089
Protein P17028 ZNF24
  E6 log2 (H4K5me2/H4K5): 0.05262
  F6 log2 (H4K5me2/H4K5): 0.1336
Protein P22314 UBA1
  E6 log2 (H4K5me2/H4K5): 0.1022
  F6 log2 (H4K5me2/H4K5): 0.2143
Protein P26358 DNMT1
  E6 log2 (H4K5me2/H4K5): 0.1405
  F6 log2 (H4K5me2/H4K5): 0.2161
Protein P26641 EEF1G
  E6 log2 (H4K5me2/H4K5): 0.08126
  F6 log2 (H4K5me2/H4K5): 0.1297
Protein P29692 EEF1D
  E6 log2 (H4K5me2/H4K5): 0.1014
  F6 log2 (H4K5me2/H4K5): -0.2527
Protein P31689 DNAJA1
  E6 log2 (H4K5me2/H4K5): 0.1011
  F6 log2 (H4K5me2/H4K5): 0.04124
Protein P46109 CRKL
  E6 log2 (H4K5me2/H4K5): 0.0665
  F6 log2 (H4K5me2/H4K5): -0.05223
Protein P49411 TUFM
  E6 log2 (H4K5me2/H4K5): 0.1754
  F6 log2 (H4K5me2/H4K5): 0.2878
Protein P49792 RANBP2
  E6 log2 (H4K5me2/H4K5): 0.07412
  F6 log2 (H4K5me2/H4K5): 0.1736
Protein P49915 GMPS
  E6 log2 (H4K5me2/H4K5): 0.05379
  F6 log2 (H4K5me2/H4K5): 0.04262
Protein P51991 HNRNPA3
  E6 log2 (H4K5me2/H4K5): 0.1036
  F6 log2 (H4K5me2/H4K5): 0.2517
Protein P52272 HNRNPM
  E6 log2 (H4K5me2/H4K5): 0.1368
  F6 log2 (H4K5me2/H4K5): 0.1164
Protein P52597 HNRNPF
  E6 log2 (H4K5me2/H4K5): 0.1056
  F6 log2 (H4K5me2/H4K5): 0.253
Protein P52948 NUP98
  E6 log2 (H4K5me2/H4K5): 0.08442
  F6 log2 (H4K5me2/H4K5): -0.03692
Protein P55072 VCP
  E6 log2 (H4K5me2/H4K5): 0.1596
  F6 log2 (H4K5me2/H4K5): 0.3874
Protein P62258 YWHAE
  E6 log2 (H4K5me2/H4K5): 0.1303
  F6 log2 (H4K5me2/H4K5): -0.03753
Protein P62979 RPS27A
  E6 log2 (H4K5me2/H4K5): 0.1537
  F6 log2 (H4K5me2/H4K5): -0.5244
Protein P63167 DYNLL1
  E6 log2 (H4K5me2/H4K5): 0.05641
  F6 log2 (H4K5me2/H4K5): 0.2614
Protein P67870 CSNK2B
  E6 log2 (H4K5me2/H4K5): 0.1418
  F6 log2 (H4K5me2/H4K5): -0.3988
Protein P78347 GTF2I
  E6 log2 (H4K5me2/H4K5): 0.1733
  F6 log2 (H4K5me2/H4K5): 0.08348
Protein P78371 CCT2
  E6 log2 (H4K5me2/H4K5): 0.07998
  F6 log2 (H4K5me2/H4K5): 0.282
Protein P84103 SRSF3
  E6 log2 (H4K5me2/H4K5): 0.08043
  F6 log2 (H4K5me2/H4K5): -0.102
Protein P85037 FOXK1
  E6 log2 (H4K5me2/H4K5): 0.1575
  F6 log2 (H4K5me2/H4K5): -0.07311
Protein Q5SY16 NOL9
  E6 log2 (H4K5me2/H4K5): 0.1325
